According to PubChem BioAssay (NCI):
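At the GI50, growth is halved. TGI: concentration producing complete growth inhibition.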

Key:
Assay in all cases: NCI anticancer screen, dose series, 384-well format
HL-60(TB) leukemia = system: HL-60(TB) leukemia
MOLT-4 leukemia = system: MOLT-4 leukemia
SK-MEL-28 melanoma = system: SK-MEL-28 melanoma
COLO 205 colon = system: COLO 205 colon
RPMI-8226 leukemia = system: RPMI-8226 leukemia
SK-MEL-5 melanoma = system: SK-MEL-5 melanoma
SNB-19 CNS = system: SNB-19 CNS
U251 glioblastoma = system: U251 glioblastoma
OVCAR-5 ovarian = system: OVCAR-5 ovarian
HCT-15 colon = system: HCT-15 colon
CAKI-1 renal = system: CAKI-1 renal
RXF 393 renal = system: RXF 393 renal
NCI-H460 NSCLC = system: NCI-H460 NSCLC
MDA-MB-435 melanoma = system: MDA-MB-435 melanoma
IGROV1 ovarian = system: IGROV1 ovarian
HOP-92 NSCLC = system: HOP-92 NSCLC
A498 renal = system: A498 renal
SN12C renal = system: SN12C renal
UACC-62 melanoma = system: UACC-62 melanoma
K-562 leukemia = system: K-562 leukemia
SF-539 CNS = system: SF-539 CNS
HOP-62 NSCLC = system: HOP-62 NSCLC
UO-31 renal = system: UO-31 renal
MDA-MB-468 breast = system: MDA-MB-468 breast
HCC-2998 colon = system: HCC-2998 colon
SF-268 CNS = system: SF-268 CNS
NCI-H522 lung = system: NCI-H522 lung
TK-10 renal = system: TK-10 renal
HT29 colon = system: HT29 colon
ACHN renal = system: ACHN renal
MCF7 breast = system: MCF7 breast
DU-145 prostate = system: DU-145 prostate
NCI/ADR-RES ovarian = system: NCI/ADR-RES ovarian
HS 578T breast = system: HS 578T breast
SNB-75 CNS = system: SNB-75 CNS
MALME-3M melanoma = system: MALME-3M melanoma
NCI-H322M lung = system: NCI-H322M lung
T-47D breast = system: T-47D breast
M14 melanoma = system: M14 melanoma
CCRF-CEM leukemia = system: CCRF-CEM leukemia
SK-OV-3 ovarian = system: SK-OV-3 ovarian
KM12 colon = system: KM12 colon
A549 NSCLC = system: A549 NSCLC
786-0 renal = system: 786-0 renal
LOX IMVI melanoma = system: LOX IMVI melanoma
HCT-116 colon = system: HCT-116 colon
OVCAR-8 ovarian = system: OVCAR-8 ovarian
UACC-257 melanoma = system: UACC-257 melanoma
BT-549 breast = system: BT-549 breast
OVCAR-4 ovarian = system: OVCAR-4 ovarian
EKVX NSCLC = system: EKVX NSCLC
NCI-H226 lung = system: NCI-H226 lung
OVCAR-3 ovarian = system: OVCAR-3 ovarian
SW-620 colon = system: SW-620 colon
MDA-MB-231 breast = system: MDA-MB-231 breast
NCI-H23 lung = system: NCI-H23 lung

Q: For CCn1c(CO)nn(-c2cc(O[C@@H](C)C(F)(F)F)c(C(=O)Nc3c(F)cccc3Cl)cc2F)c1=O, which GI50 (HL-60(TB) leukemia) is on record?
A: < 0.01 µM

Q: And the TGI (HL-60(TB) leukemia)?
A: < 0.01 µM

Q: What about the GI50 (MOLT-4 leukemia) of the same compound?
A: < 0.01 µM

Q: What about the TGI (MOLT-4 leukemia) of the same compound?
A: < 0.01 µM

Q: And the GI50 (SK-MEL-28 melanoma)?
A: < 0.01 µM

Q: And the TGI (SK-MEL-28 melanoma)?
A: 19.9 µM

Q: And the GI50 (COLO 205 colon)?
A: < 0.01 µM

Q: And the TGI (COLO 205 colon)?
A: > 100 µM

Q: What about the GI50 (RPMI-8226 leukemia) of the same compound?
A: < 0.01 µM

Q: And the TGI (RPMI-8226 leukemia)?
A: < 0.01 µM

Q: And the GI50 (SK-MEL-5 melanoma)?
A: < 0.01 µM

Q: And the TGI (SK-MEL-5 melanoma)?
A: 18.8 µM

Q: What about the GI50 (SNB-19 CNS) of the same compound?
A: 17.5 µM

Q: And the TGI (SNB-19 CNS)?
A: > 100 µM

Q: What about the GI50 (U251 glioblastoma) of the same compound?
A: < 0.01 µM

Q: What about the TGI (U251 glioblastoma) of the same compound?
A: 30.7 µM

Q: What about the GI50 (OVCAR-5 ovarian) of the same compound?
A: < 0.01 µM

Q: And the TGI (OVCAR-5 ovarian)?
A: > 100 µM

Q: And the GI50 (HCT-15 colon)?
A: < 0.01 µM

Q: What about the TGI (HCT-15 colon) of the same compound?
A: > 100 µM

Q: And the GI50 (CAKI-1 renal)?
A: < 0.01 µM

Q: What about the TGI (CAKI-1 renal) of the same compound?
A: > 100 µM

Q: What about the GI50 (RXF 393 renal) of the same compound?
A: < 0.01 µM

Q: And the TGI (RXF 393 renal)?
A: 12.3 µM

Q: And the GI50 (NCI-H460 NSCLC)?
A: < 0.01 µM

Q: What about the TGI (NCI-H460 NSCLC) of the same compound?
A: 14.7 µM

Q: And the GI50 (MDA-MB-435 melanoma)?
A: < 0.01 µM

Q: And the TGI (MDA-MB-435 melanoma)?
A: > 100 µM

Q: What about the GI50 (IGROV1 ovarian) of the same compound?
A: 2.22 µM

Q: What about the TGI (IGROV1 ovarian) of the same compound?
A: > 100 µM

Q: What about the GI50 (HOP-92 NSCLC) of the same compound?
A: < 0.01 µM

Q: What about the TGI (HOP-92 NSCLC) of the same compound?
A: > 100 µM

Q: What about the GI50 (A498 renal) of the same compound?
A: 13.5 µM

Q: What about the TGI (A498 renal) of the same compound?
A: > 100 µM

Q: What about the GI50 (SN12C renal) of the same compound?
A: < 0.01 µM

Q: And the TGI (SN12C renal)?
A: > 100 µM

Q: What about the GI50 (UACC-62 melanoma) of the same compound?
A: < 0.01 µM

Q: What about the TGI (UACC-62 melanoma) of the same compound?
A: 70.2 µM

Q: What about the GI50 (K-562 leukemia) of the same compound?
A: < 0.01 µM

Q: What about the TGI (K-562 leukemia) of the same compound?
A: > 100 µM

Q: And the GI50 (SF-539 CNS)?
A: 16.1 µM

Q: And the TGI (SF-539 CNS)?
A: > 100 µM

Q: And the GI50 (HOP-62 NSCLC)?
A: 6.85 µM

Q: And the TGI (HOP-62 NSCLC)?
A: > 100 µM

Q: And the GI50 (UO-31 renal)?
A: < 0.01 µM

Q: And the TGI (UO-31 renal)?
A: 28.8 µM

Q: What about the GI50 (MDA-MB-468 breast) of the same compound?
A: < 0.01 µM

Q: And the TGI (MDA-MB-468 breast)?
A: 22.6 µM

Q: What about the GI50 (HCC-2998 colon) of the same compound?
A: 18.6 µM

Q: And the TGI (HCC-2998 colon)?
A: > 100 µM

Q: What about the GI50 (SF-268 CNS) of the same compound?
A: < 0.01 µM

Q: And the TGI (SF-268 CNS)?
A: < 0.01 µM

Q: What about the GI50 (NCI-H522 lung) of the same compound?
A: < 0.01 µM

Q: What about the TGI (NCI-H522 lung) of the same compound?
A: 84.5 µM

Q: What about the GI50 (TK-10 renal) of the same compound?
A: < 0.01 µM

Q: And the TGI (TK-10 renal)?
A: > 100 µM

Q: What about the GI50 (HT29 colon) of the same compound?
A: < 0.01 µM

Q: What about the TGI (HT29 colon) of the same compound?
A: 62.6 µM

Q: And the GI50 (ACHN renal)?
A: < 0.01 µM

Q: What about the TGI (ACHN renal) of the same compound?
A: > 100 µM

Q: What about the GI50 (MCF7 breast) of the same compound?
A: < 0.01 µM

Q: What about the TGI (MCF7 breast) of the same compound?
A: 91.3 µM

Q: And the GI50 (DU-145 prostate)?
A: < 0.01 µM

Q: And the TGI (DU-145 prostate)?
A: > 100 µM

Q: What about the GI50 (NCI/ADR-RES ovarian) of the same compound?
A: < 0.01 µM

Q: And the TGI (NCI/ADR-RES ovarian)?
A: 88 µM

Q: What about the GI50 (HS 578T breast) of the same compound?
A: 15.2 µM

Q: And the TGI (HS 578T breast)?
A: > 100 µM

Q: What about the GI50 (SNB-75 CNS) of the same compound?
A: 13.4 µM

Q: And the TGI (SNB-75 CNS)?
A: 79.2 µM

Q: What about the GI50 (MALME-3M melanoma) of the same compound?
A: < 0.01 µM

Q: What about the TGI (MALME-3M melanoma) of the same compound?
A: > 100 µM

Q: And the GI50 (NCI-H322M lung)?
A: 9.92 µM

Q: What about the TGI (NCI-H322M lung) of the same compound?
A: > 100 µM

Q: What about the GI50 (T-47D breast) of the same compound?
A: 7.65 µM

Q: And the TGI (T-47D breast)?
A: 58.2 µM

Q: What about the GI50 (M14 melanoma) of the same compound?
A: < 0.01 µM

Q: And the TGI (M14 melanoma)?
A: 62.7 µM

Q: What about the GI50 (CCRF-CEM leukemia) of the same compound?
A: < 0.01 µM

Q: And the TGI (CCRF-CEM leukemia)?
A: 43 µM

Q: And the GI50 (SK-OV-3 ovarian)?
A: 22.7 µM

Q: And the TGI (SK-OV-3 ovarian)?
A: > 100 µM

Q: And the GI50 (KM12 colon)?
A: < 0.01 µM

Q: And the TGI (KM12 colon)?
A: > 100 µM

Q: What about the GI50 (A549 NSCLC) of the same compound?
A: < 0.01 µM

Q: What about the TGI (A549 NSCLC) of the same compound?
A: > 100 µM

Q: What about the GI50 ([…]-0 renal) of the same compound?
A: < 0.01 µM

Q: And the TGI (786-0 renal)?
A: 32.5 µM

Q: What about the GI50 (LOX IMVI melanoma) of the same compound?
A: < 0.01 µM

Q: What about the TGI (LOX IMVI melanoma) of the same compound?
A: < 0.01 µM

Q: And the GI50 (HCT-116 colon)?
A: < 0.01 µM

Q: What about the TGI (HCT-116 colon) of the same compound?
A: > 100 µM

Q: What about the GI50 (OVCAR-8 ovarian) of the same compound?
A: < 0.01 µM

Q: And the TGI (OVCAR-8 ovarian)?
A: > 100 µM

Q: And the GI50 (UACC-257 melanoma)?
A: 11.2 µM

Q: What about the TGI (UACC-257 melanoma) of the same compound?
A: > 100 µM

Q: And the GI50 (BT-549 breast)?
A: < 0.01 µM

Q: And the TGI (BT-549 breast)?
A: > 100 µM

Q: And the GI50 (OVCAR-4 ovarian)?
A: 54.9 µM

Q: And the TGI (OVCAR-4 ovarian)?
A: > 100 µM

Q: And the GI50 (EKVX NSCLC)?
A: 63.4 µM

Q: And the TGI (EKVX NSCLC)?
A: > 100 µM

Q: And the GI50 (NCI-H226 lung)?
A: 17.6 µM

Q: And the TGI (NCI-H226 lung)?
A: > 100 µM

Q: And the GI50 (OVCAR-3 ovarian)?
A: 20.8 µM

Q: And the TGI (OVCAR-3 ovarian)?
A: > 100 µM

Q: What about the GI50 (SW-620 colon) of the same compound?
A: < 0.01 µM

Q: What about the TGI (SW-620 colon) of the same compound?
A: 20.4 µM

Q: What about the GI50 (MDA-MB-231 breast) of the same compound?
A: < 0.01 µM

Q: What about the TGI (MDA-MB-231 breast) of the same compound?
A: > 100 µM

Q: What about the GI50 (NCI-H23 lung) of the same compound?
A: < 0.01 µM

Q: And the TGI (NCI-H23 lung)?
A: > 100 µM
